Test: Human HepG2 cell viability assay in 384 well format
Assay type: toxicity, cell-based
Design: dose 125 nL, time 70.5 hour; cytotoxicity at 70.5 h: concentration not given beside the values
Settings: HepG2 cells, read-out: Inhibition

| Structure (SMILES) | cytotoxicity at 70.5 h [%] |
| --- | --- |
| CCn1ccnc1CN1CCCC(CO)(Cc2cccc(OC)c2)C1 (configuration not stated) | -14.1 |
| O=C(CC1CC1)N1CCC2(CCCN(c3ncccn3)C2)CC1 | -10.9 |
| COCC(=O)N1CCC2(CC1)CN(c1ncccn1)CCO2 | -10.1 |
| CN(C)CCN1CC[C@@H]2[C@@H]1CCN2C(=O)c1cccc(Cl)c1 | -13.9 |
| CN(Cc1cncnc1)[C@H]1CN(Cc2ccco2)[C@@H]2CCCO[C@@H]21 | -9.91 |
| NC(=O)N1CCC2(CC1)CN(c1ncccn1)CCO2 | -7.64 |
| CCO[C@@H]1CCN(C(=O)N(C)C)[C@@H]1Cc1cnn(C)c1 | -10.7 |
| COCCO[C@H]1CCN(C(=O)c2cnccn2)[C@H]1Cc1ccncc1 | -1.32 |
| COCC1CN(C(=O)Cc2cccs2)Cc2c1cnn2C (configuration not stated) | 21.2 |
| O=C(c1cscn1)N1CC[C@H]2[C@@H]1CCC(=O)N2c1ccccc1 | 1.24 |
| CNC(=O)[C@@]12CCO[C@@H]1CCN(S(=O)(=O)c1cccc(F)c1)C2 | -10.2 |
| O=C(c1ccnnc1)N1CCc2ncnc(C3CCOC3)c2CC1 (configuration not stated) | -9.59 |
| O=C(c1ccncc1)N1CCc2ncnc(C3CCOC3)c2CC1 (configuration not stated) | -10.1 |
| O=C(CC1CCCC1)N1C[C@@H]2CN(Cc3ccoc3)CCO[C@@H]2C1 | -11.5 |
| COc1ncnc2c1CCN(CC1CCOC1)CC2 (configuration not stated) | -13.6 |
| O=C(N1CCCC1)N1C[C@@H]2CN(Cc3ccoc3)CCO[C@@H]2C1 | -11.3 |
| Cc1cccc(CN2CC[C@H]3C[C@@H](C)O[C@@H]3C2)n1 | 10.9 |
| CCOCC1CN(C(=O)c2cscn2)Cc2cnn(CC3CC3)c21 (configuration not stated) | 8.12 |
| CCOCC1CN(C(=O)Cc2ccccn2)Cc2cnn(CC)c21 (configuration not stated) | 10.8 |
| Cc1n[nH]c(C)c1CCC(=O)NCC1COc2ccccc2C1 (configuration not stated) | -2.08 |
| CCn1ccnc1CN(C)C1CCCN(CCCc2ccccc2)C1 (configuration not stated) | 18.6 |
| CSc1ccc2cc(CN(C)CCCN(C)C)c(=O)[nH]c2c1 | -11.2 |

| Structure (SMILES) | cytotoxicity at 70.5 h [%] |
| --- | --- |
| COCCn1ccnc1C1CCCN(C(=O)CSc2nnc(C)o2)C1 (configuration not stated) | -5.99 |
| CC1c2cccn2CCN1C(=O)CCCc1nc(-c2ccco2)no1 (configuration not stated) | -7.42 |
| CCc1nccn1CCC(=O)N1CC[C@@H](c2sccc2C)[C@H](O)C1 | -12.3 |
| Cc1ccnc(N2CCN(C[C@]3(O)CCCN4CCCC[C@@H]43)CC2)c1 | 1.52 |
| CC(C)=CCCC(C)CN1CCC(n2cc(C(C)(C)O)nn2)CC1 (configuration not stated) | -8.45 |
| Cc1ccc(-c2ccnc(NC(C)c3n[nH]c(=O)[nH]3)n2)c(C)n1 (configuration not stated) | -12.8 |
| O=c1n(CC2COCCO2)nc(CC2CCNCC2)n1-c1ccccc1 (configuration not stated) | -3.66 |
| Cc1cnc(C(=O)NCC2CCOc3ccccc3C2)cn1 (configuration not stated) | 14.4 |
| Cn1ncc(N2CCOC(CCNC(=O)NC(C)(C)C)C2)cc1=O (configuration not stated) | 19.2 |
| COc1cccc(OCCCc2cncc(C(N)=O)c2)c1 | -13.7 |
| COCCCN1CC2(CCN(Cc3ncc[nH]3)CC2)CC1=O | -4.09 |
| COc1ccc2c(c1)OCC(Cc1ccnc(N)n1)C2 (configuration not stated) | 8.07 |
| O[C@H]1[C@H](n2cc(-c3ccccn3)nn2)c2ccccc2C12CCNCC2 | -3.68 |
| COCCCN1C(=O)CC[C@H]2CN(c3cc(C(N)=O)ccn3)CC[C@H]21 | -7.97 |
| CC(=O)c1cccc(CN2CCCC23CCN(c2ccccn2)CC3)c1 | -4.38 |
| OC(c1ccccn1)C1CCN(Cc2cc3n(n2)CCCNC3)CC1 (configuration not stated) | -21 |
| Cc1nccn1CCC1CCCCN1Cc1cnc(N(C)C)nc1 (configuration not stated) | -3.91 |
| O=C(N1CC(c2cccnc2)C1)C1(c2ccc(F)cc2)CCOCC1 | 3.01 |
| C[C@@H]1CN(S(=O)(=O)c2ccc(F)cc2Cl)C[C@]1(C)O | -0.172 |
| COc1ccc(OC)c2c(C)cc(N(C)CCCO)nc12 | 4.59 |
| CC(C)(C)c1oc(C(N)=O)cc1CN1CCCCC(N)C1 (configuration not stated) | -7.89 |
| COc1ccc2c(c1)OCC(CNC(=O)c1cc(C(C)C)on1)C2 (configuration not stated) | -20.5 |

| Structure (SMILES) | cytotoxicity at 70.5 h [%] |
| --- | --- |
| CCN(CC)C(=O)[C@@H]1C[C@@H](NC(=O)c2cccn2C2CC2)CN1C | -7.5 |
| COc1cccc([C@@H](C)n2ccnc2-c2cc3n(n2)CCNC3)c1 | -10.2 |
| CC(C)c1nnc2n1CCN(Cc1ccc3c(c1)OCO3)CC2 | -11.5 |
| COc1cccc(N2CCN(Cc3cccc(CCN)c3)CC2=O)c1 | -6.65 |
| COCCn1c(=O)n(Cc2ccc(Cl)s2)c2cc(C(=O)O)ccc21 | -10.7 |
| c1cnn(CCC2CCCCN2Cc2cnc(C3CCCCC3)nc2)c1 (configuration not stated) | -8.97 |
| O=C1N(CCCc2ccccc2)CCCC1(O)CNCC1CCCCC1 (configuration not stated) | 6.76 |
| COc1cc(O)ccc1CN1CCN(C2CCc3ccccc3C2)CC1 (configuration not stated) | -3.26 |
| CC(C)(N)c1cn(C2CCN(C(=O)CCC3CCCCC3)CC2)nn1 | -5.04 |
| CC(=O)N1C[C@H](NC(=O)c2csc(C(C)C)c2)[C@@H](C(C)C)C1 | 14.4 |
| C=Cc1cccc(CN(Cc2cnn(C)c2)C2CC2)c1 | -9.54 |
| CN1CCC(NCC2(O)CCCN(Cc3ccccc3F)C2=O)CC1 (configuration not stated) | -4.92 |
| CCN1CC(C(=O)N2CCc3cc(C(N)=O)n(C)c3C2)CC1=O (configuration not stated) | -2.91 |
| Nc1cc(C(=O)N2CCC(Oc3cccc(C(F)(F)F)c3)CC2)ccn1 | -3.83 |
| CCO[C@H]1CN(C)C[C@@H]1NC(=O)c1cc(C)nc2ccc(C)cc12 | -6.33 |
| CCN(CC)S(=O)(=O)N1CCCC(c2nccn2Cc2cccnc2)C1 (configuration not stated) | -5.79 |
| COc1cccc2c1OCC(NCc1cnn(-c3ccccc3F)c1)C2 (configuration not stated) | -0.785 |
| Cc1cc2ccccc2n1CCC(=O)N1CCCCC1CCO (configuration not stated) | -6.95 |
| Cc1nc2c(c(NC3CC3)n1)CCN(C(=O)CCc1cccnc1)CC2 | 12.4 |
| CNc1nc(C(=O)N2C[C@H]3CC[C@@H]2CN(C2CCOCC2)C3)cs1 | -10.2 |
| CCc1nc(C)c(C2CC(=O)Nc3c2c(C(C)(C)C)nn3C)[nH]1 (configuration not stated) | 0.46 |
| CC(C)=CCN1C(=O)[C@H]2CC[C@@H]1CN(c1ncccn1)C2 | -21 |

| Structure (SMILES) | cytotoxicity at 70.5 h [%] |
| --- | --- |
| CC(=O)c1cn(CC(=O)N2CCC(O)(CO)CC2)c2ccccc12 | -0.902 |
| O=C(O)C1(n2ccc(-c3ccco3)n2)CCN(Cc2ccsc2)CC1 | -1.95 |
| Cn1ncc2c(N3CCN4CCCCC4C3)nc(C3CCCC3)nc21 (configuration not stated) | -0.0598 |
| Cc1nc(C(=O)N2CCN(C(=O)C3CCC3)[C@@H]3CS(=O)(=O)C[C@@H]32)cs1 | 2.83 |
| C=C(C)COc1ccccc1C(=O)N1CCC(C(=O)NCC)C1 (configuration not stated) | -0.0263 |
| OC(c1ccccn1)C1CCN(Cc2cc3n(n2)CCNC3)CC1 (configuration not stated) | 17.1 |
| CCC(CO)N(Cc1cccnc1)C(=O)c1ccc(C)[nH]c1=O (configuration not stated) | -7.73 |
| Cc1cc(C(F)(F)F)nc(CNc2nc(C)nc3c2cnn3C)n1 | -7.38 |
| Cc1nc2cc(C(=O)N3C[C@@H](C(=O)O)[C@H](C4CC4)C3)ccc2[nH]1 | -3.58 |
| Cc1nc(C)c(C)c(NCc2cnn3cccnc23)n1 | 3.17 |
| O=C(c1cccnc1)C1CCCN(c2nnc(C3CC3)o2)C1 (configuration not stated) | -1.21 |
| CCCN1CCC(Cc2noc(-c3[nH]cnc3C)n2)CC1 | 6.08 |
| Cc1nn(C)c2nc(N(C)CCN(C)C3CCCC3)sc12 | 5.16 |
| O=C(c1ccccc1)N1CCCC(Nc2ccc(F)cc2)C1 (configuration not stated) | -1.68 |
| COc1cccc([C@@H]2CCN(Cc3[nH]nc(C)c3Cl)C[C@H]2O)c1 | -22.1 |
| O=C(c1cccc(F)c1)N1CC[C@H]2[C@H]1CCN2CC1CCOCC1 | -6.77 |
| CCCS(=O)(=O)N1C[C@H](N(C)Cc2ccco2)[C@@H]2OCCC[C@@H]21 | -6.06 |
| O=C1NC2(CCN(c3ncccn3)CC2)CC1c1cccnc1 (configuration not stated) | -7.58 |
| c1ccc(OC2COC3(CCN(Cc4ccccn4)CC3)C2)cc1 (configuration not stated) | 25.2 |
| Cn1ccnc1CN1CCC2(CC1)CCN(c1cncnc1)C2=O | -3.96 |
| Cn1cc(C(=O)N2CC[C@@H]3[C@@H]2CCN3Cc2cccc(C#N)c2)cn1 | 0.809 |
| Cc1ccccc1N1CC2(CCN(Cc3nccn3C)C2)CC1=O (configuration not stated) | -13.1 |

| Structure (SMILES) | cytotoxicity at 70.5 h [%] |
| --- | --- |
| COCCN1C(=O)CCC12CCCN(Cc1nccs1)CC2 (configuration not stated) | -6.77 |
| Cc1cnc(C(=O)N2CC[C@H]3[C@@H]2CCC(=O)N3c2cccnc2)cn1 | -14.6 |
| O=C(C1CC(F)(F)C1)N1C[C@@H]2CN(Cc3ccsc3)CCO[C@@H]2C1 | -14.8 |
| CNC(=O)[C@@]12CCO[C@@H]1CCN(Cc1cccc(C)c1)C2 | -12.5 |
| O=C(C1CCOCC1)N1C[C@@H]2CN(Cc3ccsc3)CCO[C@@H]2C1 | -10.4 |
| Cc1ncnc2c1CCN(CC1CCOC1)CC2 (configuration not stated) | -8.05 |
| O=C(Cc1cccs1)N1C[C@@H]2CN(Cc3ccoc3)CCO[C@@H]2C1 | -15.2 |
| Cc1nc(CN2CCC3(CC2)CCN(C(=O)c2cscn2)C3)cs1 | -13.7 |
| Cc1ccoc1C(=O)N1CC[C@H]2[C@@H]1CCC(=O)N2c1cccnc1 | -14.8 |
| CCOCC1CN(C(=O)Cc2ccccn2)Cc2c1cnn2C (configuration not stated) | -7.19 |
| Cc1cnc(N2CC[C@@H]3O[C@@H](COCc4ccccn4)CC[C@@H]32)nc1 | -8.03 |
| c1ccc(O[C@@H]2CO[C@@]3(CCCN(CC4CCOCC4)C3)C2)nc1 | -8.71 |
| O=C1[C@@H]2CCN(Cc3ccccn3)C[C@@H]2OCCN1c1ccccc1 | -4.44 |
| c1ccc(O[C@H]2CO[C@@]3(CCCN(Cc4nccs4)C3)C2)nc1 | 42.1 |
| O=C1CC2(CCN(Cc3cccnc3)C2)CN1c1cncnc1 (configuration not stated) | -2.69 |
| O=C(NCc1cccnc1)[C@@H]1CC[C@@H]2[C@@H](CCN2c2ncc(F)cn2)O1 | -3.65 |
| Cc1noc(C)c1CN1CCN(Cc2cccnc2)c2ncccc2C1 | -6.13 |
| COCCN1CCN(Cc2ccncc2)c2ncccc2C1 | -11 |
| CN(Cc1ccco1)[C@@H]1CN(Cc2nccn2C)[C@@H]2CCCO[C@H]12 | -8.73 |

Source: ChEMBL document CHEMBL3507680, “University of Dundee, Gates Library screen for HepG2 cell viability”
